Measurements from US8129417B2, “Substituted octahydrocyclopenta[C]pyrrol-4-amines as calcium channel blockers” (Abbott Laboratories, priority 2008, dated 2012).

Biological target: human Cav2.2 (Homo sapiens, UniProt Q00975)
Test: Assessment of calcium channel activity using FLIPR (Ca2+ influx in IMR32 cells)
Type: cell-based
Conditions: for IC50: 2 μM nifedipine, depolarized with 80 mM KCl
Experimental: (i) In Vitro Methods—Assessment of Calcium Channel Activity Using FLIPR:
The IMR32 cells were maintained in MEM media containing 10% (v/v) FBS, 1% (v/v) antibiotic/antimitotic, 1% (v/v) sodium pyruvate and 1% (v/v) MEM NEAA. Following dissociation in 0.05% (v/v) trypsin/EDTA, cells were seeded into black 1×96-well plates (Corning Cellbind) at a density of 1-1.2×10^5 cells/well and incubated in the maintenance media above for 48 hours at 37° C. […] To determine the IC50 values, the percent inhibition of the compound at each concentration was determined relative to the activity in the absence of inhibitor, and data was fitted using non-linear regression sigmoidal dose response curve analysis with GraphPad Prism®.

[1] = 60 minute pre-incubation with compound
[2] = 3 minute pre-incubation with compound (*)

Sequence of human Cav2.2 (Q00975 whole entry): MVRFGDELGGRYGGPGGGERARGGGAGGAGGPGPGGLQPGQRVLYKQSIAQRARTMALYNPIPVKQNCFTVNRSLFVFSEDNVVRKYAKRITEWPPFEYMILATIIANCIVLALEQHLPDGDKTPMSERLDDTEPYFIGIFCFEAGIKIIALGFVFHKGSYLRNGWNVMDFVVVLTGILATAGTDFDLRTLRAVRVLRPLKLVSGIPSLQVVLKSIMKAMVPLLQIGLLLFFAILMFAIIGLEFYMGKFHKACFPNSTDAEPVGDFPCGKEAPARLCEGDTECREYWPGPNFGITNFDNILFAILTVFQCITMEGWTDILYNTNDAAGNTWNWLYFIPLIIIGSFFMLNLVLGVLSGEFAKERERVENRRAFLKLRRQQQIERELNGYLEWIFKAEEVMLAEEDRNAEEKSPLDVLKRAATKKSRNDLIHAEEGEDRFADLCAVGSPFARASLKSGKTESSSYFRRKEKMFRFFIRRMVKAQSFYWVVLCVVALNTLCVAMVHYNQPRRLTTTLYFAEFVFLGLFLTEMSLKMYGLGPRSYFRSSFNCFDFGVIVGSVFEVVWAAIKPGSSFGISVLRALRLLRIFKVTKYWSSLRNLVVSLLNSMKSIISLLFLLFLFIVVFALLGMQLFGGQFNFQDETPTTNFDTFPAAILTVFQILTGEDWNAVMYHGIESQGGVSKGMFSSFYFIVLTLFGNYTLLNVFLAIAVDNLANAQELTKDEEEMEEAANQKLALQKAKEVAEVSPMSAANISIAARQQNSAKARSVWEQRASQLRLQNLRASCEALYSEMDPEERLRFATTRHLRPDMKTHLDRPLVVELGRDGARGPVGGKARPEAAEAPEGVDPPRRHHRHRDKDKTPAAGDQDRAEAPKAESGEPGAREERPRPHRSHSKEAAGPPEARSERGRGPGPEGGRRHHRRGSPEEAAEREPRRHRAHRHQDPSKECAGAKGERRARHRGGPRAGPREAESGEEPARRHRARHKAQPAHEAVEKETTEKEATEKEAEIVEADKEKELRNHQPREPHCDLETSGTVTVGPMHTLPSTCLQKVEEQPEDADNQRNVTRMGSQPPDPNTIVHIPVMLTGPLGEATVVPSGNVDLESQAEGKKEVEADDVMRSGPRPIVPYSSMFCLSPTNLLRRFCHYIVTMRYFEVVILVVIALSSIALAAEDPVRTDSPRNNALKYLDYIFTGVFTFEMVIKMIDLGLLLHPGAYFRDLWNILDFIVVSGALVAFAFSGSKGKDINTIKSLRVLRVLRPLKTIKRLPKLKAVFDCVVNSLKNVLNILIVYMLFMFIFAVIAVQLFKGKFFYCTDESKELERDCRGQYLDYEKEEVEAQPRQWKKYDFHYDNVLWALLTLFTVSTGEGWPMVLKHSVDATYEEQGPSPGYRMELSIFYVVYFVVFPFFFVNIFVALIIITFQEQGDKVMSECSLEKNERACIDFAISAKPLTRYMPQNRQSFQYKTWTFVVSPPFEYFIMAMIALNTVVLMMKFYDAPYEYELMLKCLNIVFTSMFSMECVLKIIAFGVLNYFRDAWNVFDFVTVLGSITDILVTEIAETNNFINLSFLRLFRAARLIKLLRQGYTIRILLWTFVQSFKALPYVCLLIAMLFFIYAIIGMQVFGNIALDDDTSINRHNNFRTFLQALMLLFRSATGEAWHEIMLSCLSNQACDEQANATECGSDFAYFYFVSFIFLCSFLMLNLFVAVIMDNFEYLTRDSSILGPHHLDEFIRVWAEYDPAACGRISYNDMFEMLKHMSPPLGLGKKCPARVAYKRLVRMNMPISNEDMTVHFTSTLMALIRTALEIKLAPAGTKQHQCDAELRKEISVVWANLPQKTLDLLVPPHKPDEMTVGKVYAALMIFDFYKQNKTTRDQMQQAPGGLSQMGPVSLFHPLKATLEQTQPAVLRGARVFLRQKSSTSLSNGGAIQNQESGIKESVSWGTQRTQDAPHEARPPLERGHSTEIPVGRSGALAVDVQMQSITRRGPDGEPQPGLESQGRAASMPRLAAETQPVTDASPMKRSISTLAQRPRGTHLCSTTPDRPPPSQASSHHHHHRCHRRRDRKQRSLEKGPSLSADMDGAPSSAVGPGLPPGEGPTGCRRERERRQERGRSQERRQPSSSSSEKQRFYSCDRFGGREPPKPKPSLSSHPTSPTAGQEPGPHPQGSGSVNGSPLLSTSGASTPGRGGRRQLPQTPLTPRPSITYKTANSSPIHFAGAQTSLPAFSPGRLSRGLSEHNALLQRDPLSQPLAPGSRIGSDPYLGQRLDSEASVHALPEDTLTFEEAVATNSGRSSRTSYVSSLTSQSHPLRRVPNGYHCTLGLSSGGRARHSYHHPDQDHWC
Sequence of human Cav2.2 (P54289 25-946 partner limits assumed): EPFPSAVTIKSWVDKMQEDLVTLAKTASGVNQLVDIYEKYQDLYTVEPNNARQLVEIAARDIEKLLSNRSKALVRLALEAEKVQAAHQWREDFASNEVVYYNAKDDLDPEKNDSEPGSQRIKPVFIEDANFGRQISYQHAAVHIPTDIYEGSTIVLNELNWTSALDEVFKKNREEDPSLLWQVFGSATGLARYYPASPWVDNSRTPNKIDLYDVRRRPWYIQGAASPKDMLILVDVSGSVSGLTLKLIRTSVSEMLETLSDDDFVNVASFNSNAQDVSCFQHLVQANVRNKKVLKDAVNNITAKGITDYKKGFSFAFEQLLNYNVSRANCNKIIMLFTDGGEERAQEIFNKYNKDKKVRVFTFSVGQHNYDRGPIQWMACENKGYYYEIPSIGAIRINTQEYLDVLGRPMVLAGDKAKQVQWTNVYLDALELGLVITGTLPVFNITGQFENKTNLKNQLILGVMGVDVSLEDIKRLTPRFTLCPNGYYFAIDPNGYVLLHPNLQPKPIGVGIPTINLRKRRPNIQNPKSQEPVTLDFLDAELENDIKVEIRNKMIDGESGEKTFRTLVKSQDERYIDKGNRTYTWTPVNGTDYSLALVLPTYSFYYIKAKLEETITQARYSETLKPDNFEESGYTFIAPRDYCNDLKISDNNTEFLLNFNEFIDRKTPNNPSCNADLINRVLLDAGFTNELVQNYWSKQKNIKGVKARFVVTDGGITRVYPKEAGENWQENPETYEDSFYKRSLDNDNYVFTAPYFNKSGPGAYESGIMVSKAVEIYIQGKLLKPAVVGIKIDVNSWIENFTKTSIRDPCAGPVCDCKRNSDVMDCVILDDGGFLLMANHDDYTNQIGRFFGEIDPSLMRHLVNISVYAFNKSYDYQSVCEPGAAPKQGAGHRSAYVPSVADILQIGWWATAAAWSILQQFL
Sequence of human Cav2.2 (P54289 947-1103 partner limits assumed): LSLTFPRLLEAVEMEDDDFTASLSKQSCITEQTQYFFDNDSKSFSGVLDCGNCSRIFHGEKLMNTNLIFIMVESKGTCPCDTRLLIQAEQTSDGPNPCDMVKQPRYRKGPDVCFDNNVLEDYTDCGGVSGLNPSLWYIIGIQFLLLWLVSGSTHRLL
Sequence of human Cav2.2 (P54284 whole entry partner): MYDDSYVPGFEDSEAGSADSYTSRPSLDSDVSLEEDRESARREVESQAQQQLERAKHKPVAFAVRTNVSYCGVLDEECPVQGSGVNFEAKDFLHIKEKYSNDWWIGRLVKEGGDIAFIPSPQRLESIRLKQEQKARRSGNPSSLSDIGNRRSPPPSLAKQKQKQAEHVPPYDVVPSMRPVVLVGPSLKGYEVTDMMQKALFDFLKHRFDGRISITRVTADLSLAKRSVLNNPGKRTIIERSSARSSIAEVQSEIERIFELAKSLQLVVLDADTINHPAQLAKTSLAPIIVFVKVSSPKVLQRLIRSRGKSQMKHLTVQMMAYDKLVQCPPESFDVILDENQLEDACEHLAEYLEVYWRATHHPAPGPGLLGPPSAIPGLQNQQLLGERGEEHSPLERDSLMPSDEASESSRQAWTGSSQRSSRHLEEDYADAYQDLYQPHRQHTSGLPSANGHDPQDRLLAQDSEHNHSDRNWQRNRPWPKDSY

Molecule | IC50 [1] [nM] | also measured
CC(C)C[C@H](NS(=O)(=O)C1CCCC1)C(=O)N[C@@H]1CC[C@H]2CN(Cc3cccc(C(F)(F)F)c3)C[C@H]21 [Example 524, N^2-(cyclopentylsulfonyl)-N^1-{(3aS,4R,6aR)-2-[3-(trifluoromethyl)benzyl]octahydrocyclopenta[c]pyrrol-4-yl}-L-leucinamide] | 2070 | –
O=C(N[C@@H]1CC[C@H]2CN(Cc3ccccc3)C[C@H]21)C1(c2ccccc2)CCCC1 (relative stereo) [Example 2, N-[(3aS*,4R*,6aR*)-2-benzyloctahydrocyclopenta[c]pyrrol-4-yl]-1-phenylcyclopentanecarboxamide] | – | IC50 [2]: 4200 nM
CC(C)C[C@H](NCC(C)(C)C)C(=O)N[C@H]1CC[C@@H]2CN(S(=O)(=O)c3ccc(C(F)(F)F)cc3)C[C@@H]21 [Example 256, N^2-neopentyl-N^1-((3aR,4S,6aS)-2-{[4-(trifluoromethyl)phenyl]sulfonyl}octahydrocyclopenta[c]pyrrol-4-yl)-L-leucinamide] | 1380 | –
CC(C)C[C@@H](C(=O)N[C@@H]1CC[C@H]2CN(S(=O)(=O)c3ccc(F)c(C(F)(F)F)c3)C[C@H]21)N(C)C(=O)OC(C)(C)C [Example 327, tert-butyl(S)-1-((3aS,4R,6aR)-2-(4-fluoro-3-(trifluoromethyl)phenylsulfonyl)octahydrocyclopenta[c]pyrrol-4-ylamino)-4-methyl-1-oxopentan-2-yl(methyl)carbamate] | 1830 | –
CN[C@@H](CC(C)(C)C)C(=O)N[C@H]1CC[C@@H]2CN(S(=O)(=O)c3cccc(C(F)(F)F)c3)C[C@@H]21 [Example 414, N^2,4-dimethyl-N^1-((3aR,4S,6aS)-2-{[3-(trifluoromethyl)phenyl]sulfonyl}octahydrocyclopenta[c]pyrrol-4-yl)-L-leucinamide] | 900 | –
CC(C)C(C(=O)N1C[C@H]2CC[C@H](NCc3ccccc3)[C@H]2C1)c1ccccc1 (relative stereo) [Example 216, (3aR*,4S*,6aS*)-N-benzyl-2-(3-methyl-2-phenylbutanoyl)octahydrocyclopenta[c]pyrrol-4-amine] | – | inhibition at 10 µM (IMR-32, @ 10 μM, 3 minute pre-incubation (*), read-out: percent inhibition): 85%
CCC[C@H](NC)C(=O)N[C@H]1CC[C@@H]2CN(S(=O)(=O)c3ccccc3C(F)(F)F)C[C@@H]21 [Example 550, N^2-methyl-N^1-((3aR,4S,6aS)-2-{[2-(trifluoromethyl)phenyl]sulfonyl}octahydrocyclopenta[c]pyrrol-4-yl)-L-norvalinamide] | 2570 | –
O=C(N[C@@H]1CC[C@H]2CN(Cc3ccccc3)C[C@H]21)C1CCCCCC1 [Example 22, N-[(3aS,4R,6aR)-2-benzyloctahydrocyclopenta[c]pyrrol-4-yl]cycloheptanecarboxamide] | – | IC50 [2]: 14700 nM
N-[(3aS*,4R*,6aR*)-2-benzyloctahydrocyclopenta[c]pyrrol-4-yl]-2-cyclohexyl-2-phenylacetamide [Example 4] | – | IC50 [2]: 3500 nM
CC[C@H](C)[C@@H](C(=O)N[C@H]1CC[C@@H]2CN(S(=O)(=O)c3ccc(C(F)(F)F)cc3)C[C@@H]21)N(C)C(=O)OC(C)(C)C [Example 333, tert-butyl methyl((2S,3S)-3-methyl-1-oxo-1-((3aR,4S,6aS)-2-(4-(trifluoromethyl)phenylsulfonyl)octahydrocyclopenta[c]pyrrol-4-ylamino)pentan-2-yl)carbamate] | 570 | –
COc1ccc(CN2C[C@H]3CC[C@H](NC(=O)C(c4ccccc4)C(C)C)[C@H]3C2)cc1 (stereo partly drawn) [Example 96, N-[(3aR,4S,6aS)-2-(4-methoxybenzyl)octahydrocyclopenta[c]pyrrol-4-yl]-3-methyl-2-phenylbutanamide] | – | IC50 [2]: 2400 nM
CC(C)C[C@@H](C(=O)N[C@H]1CC[C@@H]2CN(Cc3ccc(F)cc3)C[C@@H]21)N(C)C(=O)OC(C)(C)C [Example 309, tert-butyl(S)-1-((3aR,4S,6aS)-2-(4-fluorobenzyl)octahydrocyclopenta[c]pyrrol-4-ylamino)-4-methyl-1-oxopentan-2-yl(methyl)carbamate] | 1740 | –
CC(C)C(C(=O)N[C@H]1CC[C@@H]2CN(CCCCc3ccccc3)C[C@@H]21)c1ccccc1 (stereo partly drawn) [Example 113, 3-methyl-2-phenyl-N-[(3aR,4S,6aS)-2-(4-phenylbutyl)octahydrocyclopenta[c]pyrrol-4-yl]butanamide] | – | IC50 [2]: 3100 nM

Further lines, with some results ahead:

IC50 [1] [nM] | Molecule | also measured
3110 | CC(C)C[C@@H](C(=O)N[C@@H]1CC[C@H]2CN(Cc3cccc(C(F)(F)F)c3)C[C@H]21)N1CCCS1(=O)=O [Example 303, (2S)-2-(1,1-dioxidoisothiazolidin-2-yl)-4-methyl-N-{(3aS,4R,6aR)-2-[3-(trifluoromethyl)benzyl]octahydrocyclopenta[c]pyrrol-4-yl}pentanamide] | –
1050 | CCC[C@H](NC)C(=O)N[C@H]1CC[C@@H]2CN(S(=O)(=O)c3cccc(Cl)c3Cl)C[C@@H]21 [Example 548, N^1-{(3aR,4S,6aS)-2-[(2,3-dichlorophenyl)sulfonyl]octahydrocyclopenta[c]pyrrol-4-yl}-N^2-methyl-L-norvalinamide] | –
830 | CC[C@H](C)[C@@H](C(=O)N[C@@H]1CC[C@H]2CN(S(=O)(=O)c3ccc(C(F)(F)F)cc3)C[C@H]21)N(C)C(=O)OC(C)(C)C [Example 335, tert-butyl methyl((2S,3S)-3-methyl-1-oxo-1-((3aS,4R,6aR)-2-(4-(trifluoromethyl)phenylsulfonyl)octahydrocyclopenta[c]pyrrol-4-ylamino)pentan-2-yl)carbamate] | –
1670 | N-((3aR,4S,6aS)-2-{[2-chloro-4-(trifluoromethyl)phenyl]sulfonyl}octahydrocyclopenta[c]pyrrol-4-yl)-N-methyl-L-phenylalaninamide [Example 432] | –
2310 | CC(C)(C)C[C@H](N)C(=O)N[C@H]1CC[C@@H]2CN(S(=O)(=O)c3cc(C(F)(F)F)ccc3Cl)C[C@@H]21 [Example 428, N^1-((3aR,4S,6aS)-2-{[2-chloro-5-(trifluoromethyl)phenyl]sulfonyl}octahydrocyclopenta[c]pyrrol-4-yl)-4-methyl-L-leucinamide] | –
480 | O=S(=O)(c1cccc(C(F)(F)F)c1)N1C[C@@H]2CC[C@@H](NCc3ccc(F)cc3)[C@@H]2C1 [Example 285, (3aS,4R,6aR)—N-(4-fluorobenzyl)-2-{[3-(trifluoromethyl)phenyl]sulfonyl}octahydrocyclopenta[c]pyrrol-4-amine] | –
1140 | CN(C(=O)OC(C)(C)C)[C@@H](CC(C)(C)C)C(=O)N(C)[C@H]1CC[C@@H]2CN(S(=O)(=O)c3ccc(C(F)(F)F)cc3)C[C@@H]21 [Example 302, tert-butyl(S)-4,4-dimethyl-1-(methyl((3aR,4S,6aS)-2-(4-(trifluoromethyl)phenylsulfonyl)octahydrocyclopenta[c]pyrrol-4-yl)amino)-1-oxopentan-2-yl(methyl)carbamate] | –
2700 | CCN(C(=O)[C@H](CC(C)(C)C)NC)[C@H]1CC[C@@H]2CN(S(=O)(=O)c3ccc(C(F)(F)F)cc3)C[C@@H]21 [Example 434, N^1-ethyl-N^2,4-dimethyl-N^1-((3aR,4S,6aS)-2-{[4-(trifluoromethyl)phenyl]sulfonyl}octahydrocyclopenta[c]pyrrol-4-yl)-L-leucinamide] | –
3170 | CCCC[C@@H](C(=O)N[C@H]1CC[C@@H]2CN(Cc3ccccc3)C[C@@H]21)N(C)C(=O)OC(C)(C)C [Example 227, tert-butyl(S)-1-((3aR,4S,6aS)-2-benzyloctahydrocyclopenta[c]pyrrol-4-ylamino)-1-oxohexan-2-yl(methyl)carbamate] | –
260 | CC(C)N[C@@H](CC(C)(C)C)C(=O)N[C@H]1CC[C@@H]2CN(c3cccc(C(F)(F)F)n3)C[C@@H]21 [Example 491, N^2-isopropyl-4-methyl-N^1-{(3aR,4S,6aS)-2-[6-(trifluoromethyl)pyridin-2-yl]octahydrocyclopenta[c]pyrrol-4-yl}-L-leucinamide] | –
1800 | CC[C@H](C)[C@H](NC)C(=O)N[C@H]1CC[C@@H]2CN(S(=O)(=O)c3cccc(C(F)(F)F)c3)C[C@@H]21 [Example 410, N^2-methyl-N^1-((3aR,4S,6aS)-2-{[3-(trifluoromethyl)phenyl]sulfonyl}octahydrocyclopenta[c]pyrrol-4-yl)-L-isoleucinamide] | –
680 | CCN(C(=O)OC(C)(C)C)[C@@H](CC(C)C)C(=O)N[C@H]1CC[C@@H]2CN(Cc3cccc(C(F)(F)F)c3)C[C@@H]21 [Example 310, tert-butyl ethyl((S)-4-methyl-1-oxo-1-((3aR,4S,6aS)-2-(3-(trifluoromethyl)benzyl)octahydrocyclopenta[c]pyrrol-4-ylamino)pentan-2-yl)carbamate] | –
570 | CC(C)C[C@@H](C(=O)N[C@H]1CC[C@@H]2CN(S(=O)(=O)c3cccc(C(F)(F)F)c3)C[C@@H]21)N(C)C [Example 497, N^2,N^2-dimethyl-N^1-((3aR,4S,6aS)-2-{[3-(trifluoromethyl)phenyl]sulfonyl}octahydrocyclopenta[c]pyrrol-4-yl)-L-leucinamide] | –
1970 | CCC[C@H](NC(C)C)C(=O)N[C@@H]1CC[C@H]2CN(S(=O)(=O)c3ccc(C(F)(F)F)cc3)C[C@H]21 [Example 482, N^2-isopropyl-N^1-((3aS,4R,6aR)-2-{[4-(trifluoromethyl)phenyl]sulfonyl}octahydrocyclopenta[c]pyrrol-4-yl)-L-norvalinamide] | –
5360 | CN[C@@H](CC(C)C)C(=O)N[C@@H]1CC[C@H]2CN(Cc3ccc(C(F)(F)F)c(F)c3)C[C@H]21 [Example 374, N^1-{(3aS,4R,6aR)-2-[3-fluoro-4-(trifluoromethyl)benzyl]octahydrocyclopenta[c]pyrrol-4-yl}-N^2-methyl-L-leucinamide] | –
